Entries after “also recorded” stand apart in the source; their conditions may differ. Where two headings read alike, the source gives them in different places.
What was measured:
ID1, ID2, ID3 and ID4 = assay: Western blot for ID1-ID4 in HCT116 cells; type: cell-based; details: 40 μM, 0-48 hours
Experimental: (§1) Immunoblotting. For immunoblotting, cells were collected by trypsinization, washed with PBS and lysed in homogenization buffer (0.3 M sucrose, 10 mM Tris (pH 8.0), 400 mM sodium chloride, 3 mM magnesium chloride, 0.5% NP40/IGEPAL, 100 μg/mL Aprotinin+Protease inhibitor cocktail (Roche #11 836 153 001). Proteins were separated by SDS-PAGE, transferred to a membrane (LI-COR), probed with primary antibodies overnight at 4° C., and probed with secondary antibodies (LI-COR) for 1-2 hours at room temperature. Proteins were visualized using the LI-COR Odyssey Infrared Imaging detection system. The following primary antibodies were used Id1, Id2, Id3, Id4 (195-14, 9-2-8, 17-3, 82-12, respectively, all from Biocheck), Cyclin D1 (2978, Cell Signaling), Actin (A2066, Sigma), Tubulin (T4026, Sigma). Western blot quantification was carried out using channel 700 and channel 800 intensity data from Odyssey application software version 3.0.30 (LI-COR), subtracting blank values and normalizing to Tubulin.
The activity of AGX51 was tested on primary human umbilical vein endothelial cells (HUVECs) and the HCT116 colorectal cancer cell line, two cell types with different ID1-4 expression profiles. […] The effects of AGX51 on ID3 loss in HUVECs was diminished in the 20-40 μM range compared with ID1, consistent with the weaker perturbation observed in the CD spectra.

[1] = tested on: retinal neovascularization; assay: Retinopathy of prematurity (ROP) model; type: in vivo, mouse; details: intraocular injection 10 μg at P12, assessed P17, p<0.01
Experimental: In the ROP experiment 26 C57BL/6 pups, 36 Id^−/− and 22 Id3^−/− pups were place in 75% O2 at P7. On P12 the mice were returned to room air and at P17 they were euthanized and retinal neovascularization was measured as described above. In the AGX51 ROP experiment, C57BL/6 pups were place in 75% O2 at P7. On P12 the mice were returned to room air and injected in the eye with 10 μg AGX51 or DMSO in the FE (N=15 mice/group). On P17 they were euthanized and retinal neovascularization was measured as described above. Retinal neovascularization pathology can also be studied in mouse models of retinopathy of prematurity (ROP). In this model, post-natal day (P) 7 mice are placed in a 75% O2 chamber, which causes retinal capillary depletion. At P12, the mice are returned to room air, which leads to the development of retinal ischemia and proliferative vascular disease in the retinal vasculature. When this model was applied to Id1 or Id3 knockout mice, a significant decrease in retinal neovascularization was observed (p<0.0001) compared to wild type mice (FIG. 1C).

4T1 = assay: MTT assay, 4T1; type: cell-based; details: Mus musculus
Description: The 4T1 murine mammary tumor cell line and nine breast cancer cell lines representing the major breast cancer subtypes (ER+, HER2+, and TNBC) including MDA-MB-157, MDA-MB-436, MDA-MB-231, MDA-MB-453, MDA-MB-361, BT-474, SK-BR-3, MCF-7 and T47-D will be grown in RPMI or DMEM (Dulbecco's Modified Eagle Medium) media supplemented with 10% FBS (fetal bovine serum), 1% penicillin-streptomycin and 1% L-Glutamine. Patient derived xenograft cell lines BR7, BR11, and IBT will be established directly from breast cancer bone metastases specimens surgically resected from patients with informed consent. BR7 and BR11 specimens will be obtained from ER positive (HER2 negative and PR negative) metastatic breast cancer patients, while the IBT specimen will be obtained from a metastatic, triple negative breast cancer patient. Fresh tumor tissues will be quickly washed with ice cold PBS and minced into about 1-3 mm pieces in MEM medium (without FBS) using sterile razor blades. […] The cells will be treated with either 100 μM DMSO, AGX51, or a compound of the present technology such as AGX-A. The cell morphology and growth will be monitored daily for 1 week by microscopy for changes in morphology or cell death. […] Absorbance will then measured at 570 nm using a plate reader (Synergy 2, BioTek). […]

Id proteins = assay: Western blot for Id1 in HCT116 and 4T1 cells (FIGS. 7C-7D); type: cell-based; details: 24 hours
Experimental: The IC50 is indicated. […] The IC50 is indicated. […] Laser-induced choroidal neovascularization (NV) was induced in mice and they were treated by intravitreal injection with DMSO, 1 or 5 μg AGX-A, or 1 or 5 μg AGX51. On day 14 the animals were euthanized and area of CNV was measured (** indicates p<0.01, *** indicates p<0.0001 by ANOVA, error bars show SEM).
as §1

[2] = tested on: cholangiocarcinoma cells (SNU1079, SNU1196); assay: AGX-A cyclodextrin formulations on cholangiocarcinoma cells (24 hour cell viability); type: cell-based
Experimental: To overcome the issue DMSO posed, investigations were performed to develop a formulation that was compatible with AGX-A as well as well-suited for administration.
Ultimately, a particularly efficacious formulation employing 2-hydroxypropyl-β-cyclodextrin (“HPBCD”) was discovered. […] Representative data is illustrated in FIGS. 25A-25B which provide the results of 24 hour cell viability studies for SNU1079 cells and SNU1196 cells, respectively.

| SMILES | ID protein levels (ID1, ID2, ID3 and ID4) | retinal neovascularization [1] | IC50 (4T1; 24 h, 4T1, MTT, read-out: IC50 value after 24 hours of treatment) [µM] | IC50 (4T1; 4T1 cells, FIG. 7D, read-out: IC50) [µM] | Id protein levels in cells, concentration needed relative to AGX51 (Id proteins) | AGX-A activity against cholangiocarcinoma cells ([2]; aqueous solution with HPBCD, 24 hour) | AGX-A induced cell death ([2]; formulations with sulfobutylether-β-cyclodextrin (CAPTISOL)) |
| --- | --- | --- | --- | --- | --- | --- | --- |
| CCC(=O)N(CCC(c1ccc2c(c1)OCO2)c1ccccc1OC)Cc1ccccc1 (racemic) [AGX51, N-(3-(benzo[d][1,3]dioxol-5-yl)-3-(2-methoxyphenyl)propyl)-N-benzylpropionamide] | reduced levels of ID1, 1D2, ID3 and ID4 | significantly reduced retinal neovascularization | 26.7 | 26.7 |  |  |  |
| COc1ccccc1C(CCNCc1ccccc1)c1ccc(OC(C)C)cc1 (stereo not shown) [AGX-A, N-benzyl-3-(4-isopropoxyphenyl)-3-(2-methoxyphenyl)propan-1-anine] |  |  |  |  | reduced Id protein levels at lower concentrations than AGX51; also recorded: degraded Id proteins in cells at lower concentrations than AGX51 | preserving AGX-A activity | neutralized AGX-A induced cell death |

Source: US20220356163A1, “SMALL MOLECULE INHIBITORS OF Id PROTEINS” (MEMORIAL SLOAN KETTERING CANCER CENTER, priority 2019, published 2022)
